Several values for one entry are separate records, joined by “and”; a condition that tells them apart may be missing. Identical values can stand only once.
Legend:
[1] = target: T1, bovine serum albumin (BSA) (Bos taurus, UniProt P02769); experiment: High hydrostatic pressure fluorescence titration of ANS with BSA (1-2000 bar); format: binding; details: for Binding volume ΔVb1 (first binding site): from slope of lnKb1 vs p (1-2000 bar); for Binding volume ΔVb1 (first binding site) / Binding volume ΔVb2 (second binding site) / Binding volume ΔVb: per mol of protein; for Binding volume ΔVb2 (second binding site): from slope of lnKb2 vs p (1-2000 bar); for Binding volume ΔVb: from slope of lnKb vs p (1-2000 bar)
T1 construct: BSA, molecular weight of 66 kDa, 583 residues; purchased Sigma Aldrich Chemicals (Taufkirchen, Germany)
T1 sequence (P02769 25-607): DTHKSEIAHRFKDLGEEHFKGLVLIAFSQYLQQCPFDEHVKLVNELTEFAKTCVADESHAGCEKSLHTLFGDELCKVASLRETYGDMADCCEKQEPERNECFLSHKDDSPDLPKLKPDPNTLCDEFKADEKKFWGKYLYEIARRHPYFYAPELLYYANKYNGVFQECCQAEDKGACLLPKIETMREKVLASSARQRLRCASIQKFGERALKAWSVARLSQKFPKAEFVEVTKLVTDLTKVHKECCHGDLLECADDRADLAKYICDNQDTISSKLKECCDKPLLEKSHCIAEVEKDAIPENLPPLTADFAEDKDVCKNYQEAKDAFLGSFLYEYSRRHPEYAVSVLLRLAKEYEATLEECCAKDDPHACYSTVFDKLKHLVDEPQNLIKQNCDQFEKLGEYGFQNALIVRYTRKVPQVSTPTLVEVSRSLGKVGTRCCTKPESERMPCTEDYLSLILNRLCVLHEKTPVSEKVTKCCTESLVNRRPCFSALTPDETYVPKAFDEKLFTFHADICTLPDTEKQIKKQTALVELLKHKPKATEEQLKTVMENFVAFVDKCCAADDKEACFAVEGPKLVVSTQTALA
Source text: The extent of complex formation between ANS and BSA was followed by means of steady-state fluorescence spectroscopy using a K2 fluorometer from ISS, Inc. (Champaign, IL, USA). The binding isotherms were obtained by recording ANS emission spectra by exciting the solutions at 350 nm and recording the emission intensities in the range 400–550 nm. The width slits of the excitation and emission monochromators were both set to 8 nm. Briefly, a series of solutions with a fixed concentration of ANS at ~5 µM were prepared, and the concentration of BSA was varied between 0 and ~40 µM. Then estimation of the binding constants (Kb) was performed by using a plot of ΔF = F − F0 (where F is the fluorescence intensity of ANS at the maximum in the presence of BSA, and F0 is the intensity of ANS in the absence of BSA) as a function of total BSA concentration and fitting the experimental data according to an equivalent and independent binding sites model or to two classes of non-equivalent and independent binding-site models, as described in detail in Reference.
For the pressure dependent measurements, the high-pressure cell system from ISS and quartz cuvettes were used. The pressure was controlled by means of a manual pump, and water was used as pressurizing fluid. A pressure range from 1 to 2000 bar was explored. The ANS and BSA solutions were mixed, vortexed, and then filled into the sample cell, which was sealed with DuraSeal^TM laboratory stretch film and placed into the high-pressure vessel. The stretch film allowed for the pressure transmission in the sample cuvette.
In the next step, we explored the impact of high hydrostatic pressure (HHP) on the binding of ANS to BSA in the presence of the three salts and in the temperature range between 5 and 25 °C. To this end, we performed the same titration experiments following the complex formation by means of HHP fluorescence spectroscopy.
From the pressure dependence of the Kb values, the volume change upon binding, the protein–ligand binding volume ΔVb, can be determined (for an in-depth discussion of pressure effects on ligand binding, please refer to Reference and references therein):(1) [∂lnKb/∂p]T=−ΔVb/RT
Here, [∂lnKb/∂p]T is the derivative of the logarithm of the binding constant (Kb) with respect to pressure (p) at constant temperature (T). R is the universal gas constant. ΔVb is the binding volume defined as the difference between the partial molar volume of the complex (PL, where P is the protein and L the ligand) and the sum of the partial molar volumes of the uncomplexed state (P+L). Thus, the binding volume can be directly estimated by taking the slope of a plot of lnKb vs. p, assuming that the volume change is independent of pressure in the (here rather small) pressure range covered.

[2] = target: T1, bovine serum albumin (BSA); details: neat buffer (10 mM Tris-HCl), no salt; cited from earlier work

In the case of `O=S(=O)(O)c1cccc2cccc(Nc3ccccc3)c12` [ANS, 8-anilinonaphthalene-1-sulfonic acid], the “Binding volume ΔVb1 (first binding site)” value ([1]; 250 mM Mg(ClO4)2, 5 °C) is reported as -7.4 mL/mol and -7.4 ± 2.4 mL/mol, the “Binding volume ΔVb2 (second binding site)” value (from here on “Binding volume ΔVb2”) ([1]; 250 mM Mg(ClO4)2, 5 °C) is reported as -12.9 mL/mol and -12.9 ± 3.2 mL/mol and the “Binding volume ΔVb1 (first binding site)” value ([1]; 250 mM Mg(ClO4)2, 15 °C) is reported as -6.0 ± 1.0 mL/mol. The “Binding volume ΔVb2” value ([1]; 250 mM Mg(ClO4)2, 15 °C) was -5.0 ± 1.0 mL/mol, the “Binding volume ΔVb1 (first binding site)” value ([1]; 250 mM Mg(ClO4)2, 25 °C) was 6.0 ± 2.0 mL/mol and the “Binding volume ΔVb2” value ([1]; 250 mM Mg(ClO4)2, 25 °C) was 2.0 ± 1.0 mL/mol. The “Increase of Kb with pressure (factor)” value ([1]; 250 mM MgCl2, 5 °C, up to 2 kbar) was “about a factor of two”, the “Binding volume ΔVb” value ([1]; 250 mM MgCl2, 15 °C) was -2.5 ± 0.4 mL/mol and the “Binding volume ΔVb” value ([1]; 250 mM MgCl2, 25 °C) was -1.0 ± 1.0 mL/mol. The “Binding volume ΔVb” value ([1]; 250 mM MgSO4, 5 °C) was 2.0 ± 1.0 mL/mol, the “Binding volume ΔVb” value ([1]; 250 mM MgSO4, 15 °C) was -2.0 ± 1.0 mL/mol and the “Binding volume ΔVb” value ([1]; 250 mM MgSO4, 25 °C) was 3.6 ± 0.5 mL/mol. It also gave a Kd ([1]; Binding constant Kb1, 250 mM Mg(ClO4)2, 5 °C, 1 bar) of 5260 nM, a Kd ([1]; Binding constant Kb1, 250 mM Mg(ClO4)2, 5 °C, 500 bar) of 3130 nM and a Kd ([1]; Binding constant Kb1, 250 mM Mg(ClO4)2, 5 °C, 1000 bar) of 2940 nM. For the same compound, the Kd ([1]; Binding constant Kb1, 250 mM Mg(ClO4)2, 5 °C, 1500 bar) was 2860 nM, the Kd ([1]; Binding constant Kb1, 250 mM Mg(ClO4)2, 5 °C, 2000 bar) was 2560 nM and the Kd ([1]; Binding constant Kb1, 250 mM Mg(ClO4)2, 15 °C, 1 bar) was 6670 nM. The Kd ([1]; Binding constant Kb1, 250 mM Mg(ClO4)2, 15 °C, 500 bar) was 7140 nM, the Kd ([1]; Binding constant Kb1, 250 mM Mg(ClO4)2, 15 °C, 1000 bar) was 5260 nM and the Kd ([1]; Binding constant Kb1, 250 mM Mg(ClO4)2, 15 °C, 1500 bar) was 4760 nM. It also gave a Kd ([1]; Binding constant Kb1, 250 mM Mg(ClO4)2, 15 °C, 2000 bar) of 3850 nM, a Kd ([1]; Binding constant Kb1, 250 mM Mg(ClO4)2, 25 °C, 1 bar) of 1690 nM and a Kd ([1]; Binding constant Kb1, 250 mM Mg(ClO4)2, 25 °C, 500 bar) of 1690 nM. The Kd ([1]; Binding constant Kb1, 250 mM Mg(ClO4)2, 25 °C, 1000 bar) was 2630 nM, the Kd ([1]; Binding constant Kb1, 250 mM Mg(ClO4)2, 25 °C, 1500 bar) was 2940 nM and the Kd ([1]; Binding constant Kb1, 250 mM Mg(ClO4)2, 25 °C, 2000 bar) was 2500 nM. It also gave a Kd ([1]; Binding constant Kb1, 250 mM MgCl2, 5 °C, 1 bar) of 1000 ± 100 nM, a Kd ([1]; Binding constant Kb1, 250 mM MgCl2, 5 °C, 500 bar) of 1000 ± 200 nM and a Kd ([1]; Binding constant Kb1, 250 mM MgCl2, 5 °C, 1000 bar) of 833 nM. It also gave a Kd ([1]; Binding constant Kb1, 250 mM MgCl2, 5 °C, 1500 bar) of 556 nM, a Kd ([1]; Binding constant Kb1, 250 mM MgCl2, 5 °C, 2000 bar) of 526 nM and a Kd ([1]; Binding constant Kb1, 250 mM MgCl2, 15 °C, 1 bar) of 2780 nM. The Kd ([1]; Binding constant Kb1, 250 mM MgCl2, 15 °C, 500 bar) was 2500 nM, the Kd ([1]; Binding constant Kb1, 250 mM MgCl2, 15 °C, 1000 bar) was 2440 nM and the Kd ([1]; Binding constant Kb1, 250 mM MgCl2, 15 °C, 1500 bar) was 2330 nM. For the same compound, the Kd ([1]; Binding constant Kb1, 250 mM MgCl2, 15 °C, 2000 bar) was 2220 nM, the Kd ([1]; Binding constant Kb1, 250 mM MgCl2, 25 °C, 1 bar) was 204 nM and the Kd ([1]; Binding constant Kb1, 250 mM MgCl2, 25 °C, 500 bar) was 233 nM. It also gave a Kd ([1]; Binding constant Kb1, 250 mM MgCl2, 25 °C, 1000 bar) of 222 nM, a Kd ([1]; Binding constant Kb1, 250 mM MgCl2, 25 °C, 1500 bar) of 204 nM and a Kd ([1]; Binding constant Kb1, 250 mM MgCl2, 25 °C, 2000 bar) of 192 nM. The Kd ([1]; Binding constant Kb1, 250 mM MgSO4, 5 °C, 1 bar) was 1610 nM, the Kd ([1]; Binding constant Kb1, 250 mM MgSO4, 5 °C, 500 bar) was 2080 nM and the Kd ([1]; Binding constant Kb1, 250 mM MgSO4, 5 °C, 1000 bar) was 2130 nM. The Kd ([1]; Binding constant Kb1, 250 mM MgSO4, 5 °C, 1500 bar) was 1820 nM, the Kd ([1]; Binding constant Kb1, 250 mM MgSO4, 5 °C, 2000 bar) was 2270 nM and the Kd ([1]; Binding constant Kb1, 250 mM MgSO4, 15 °C, 1 bar) was 2560 nM. It also gave a Kd ([1]; Binding constant Kb1, 250 mM MgSO4, 15 °C, 500 bar) of 2500 nM, a Kd ([1]; Binding constant Kb1, 250 mM MgSO4, 15 °C, 1000 bar) of 2380 nM and a Kd ([1]; Binding constant Kb1, 250 mM MgSO4, 15 °C, 1500 bar) of 2330 nM. For the same compound, the Kd ([1]; Binding constant Kb1, 250 mM MgSO4, 15 °C, 2000 bar) was 2220 nM, the Kd ([1]; Binding constant Kb1, 250 mM MgSO4, 25 °C, 1 bar) was 345 nM and the Kd ([1]; Binding constant Kb1, 250 mM MgSO4, 25 °C, 500 bar) was 345 nM. It also gave a Kd ([1]; Binding constant Kb1, 250 mM MgSO4, 25 °C, 1000 bar) of 370 nM, a Kd ([1]; Binding constant Kb1, 250 mM MgSO4, 25 °C, 1500 bar) of 417 nM and a Kd ([1]; Binding constant Kb1, 250 mM MgSO4, 25 °C, 2000 bar) of 455 nM. For the same compound, the Kd ([1]; Binding constant Kb2, 250 mM Mg(ClO4)2, 5 °C, 1 bar) was 5260 nM, the Kd ([1]; Binding constant Kb2, 250 mM Mg(ClO4)2, 5 °C, 500 bar) was 2500 nM and the Kd ([1]; Binding constant Kb2, 250 mM Mg(ClO4)2, 5 °C, 1000 bar) was 2940 nM. The Kd ([1]; Binding constant Kb2, 250 mM Mg(ClO4)2, 5 °C, 1500 bar) was 1920 nM, the Kd ([1]; Binding constant Kb2, 250 mM Mg(ClO4)2, 5 °C, 2000 bar) was 1520 nM and the Kd ([1]; Binding constant Kb2, 250 mM Mg(ClO4)2, 15 °C, 1 bar) was 7690 nM. It also gave a Kd ([1]; Binding constant Kb2, 250 mM Mg(ClO4)2, 15 °C, 500 bar) of 6670 nM, a Kd ([1]; Binding constant Kb2, 250 mM Mg(ClO4)2, 15 °C, 1000 bar) of 5260 nM and a Kd ([1]; Binding constant Kb2, 250 mM Mg(ClO4)2, 15 °C, 1500 bar) of 4760 nM. It also gave a Kd ([1]; Binding constant Kb2, 250 mM Mg(ClO4)2, 15 °C, 2000 bar) of 4170 nM, a Kd ([1]; Binding constant Kb2, 250 mM Mg(ClO4)2, 25 °C, 1 bar) of 833 nM and a Kd ([1]; Binding constant Kb2, 250 mM Mg(ClO4)2, 25 °C, 500 bar) of 909 nM. The Kd ([1]; Binding constant Kb2, 250 mM Mg(ClO4)2, 25 °C, 1000 bar) was 833 nM, the Kd ([1]; Binding constant Kb2, 250 mM Mg(ClO4)2, 25 °C, 1500 bar) was 833 nM and the Kd ([1]; Binding constant Kb2, 250 mM Mg(ClO4)2, 25 °C, 2000 bar) was 1120 nM. The “ANS molecules bound on average to one BSA molecule” value [2] was “three”.

Source: PMC8301423, “The Effects of Temperature and Pressure on Protein-Ligand Binding in the Presence of Mars-Relevant Salts” (Biology, 2021)
